Experimental data: patent publication US5811073A, “Method for radioisotopic detection and localization of inflammation in a host” (President and Fellows of Harvard College, priority 1995, dated 1998)

Experiments:
[1] = test system: bacterial (E. coli) inflammatory lesions (pus capsule); assay: Biodistribution (pus capsule to contralateral tissue ratio) in rats with bacterial infection; assay type: in vivo; settings: for Pus Capsule and Contralateral Tissue (T/B) Ratio, biodistribution: i.v., 10 μCi/rat ^67 Ga (n=2), 5 μCi/rat ^125 IUdR (n=5), mean ± SD
Description: A frozen sample of E. coli bacteria (clinical isolate; ATCC 9339) was used to inoculate a 10 ml trypticase soy medium (trypticase soy broth, BBL #11768, 30 g/L water), and the tube was incubated overnight at […] This culture was used to grow single colonies by streaking the sample on agar plates (100 mm petri dishes each containing 15 ml of […] in the same medium). Good colonies develop in 10-11 hours at 37° C. The agar plates containing bacterial colonies were stored upside down at 4° C. A single colony of bacteria from the agar plate was used to inoculate 10 ml trypticase soy medium, and the tube was incubated overnight at 37° C. with vigorous shaking. Two ml of this overnight culture was transferred into 100 ml trypticase soy medium and the sample incubated at 37° C. with vigorous shaking until the culture reached an OD600 of ~0.8 (in about 2 hrs). This 100 ml culture contained ~6.4×10^10 bacterial cells (1 OD600 =8×10^8 cells/ml).
The culture was centrifuged at 5500 rpm for 5 min at 4° C. in a Sorvall SS-34 rotor, the bacterial pellet resuspended in saline to give ~2.5×10^9 bacteria/ml, and 0.1 ml of resuspended cells injected into the left thigh muscle of each anesthetized rat.
No-carrier added radioiodinated deoxyuridine (^125 IUdR) was synthesized by the method described in the above disclosure. Commercially available gallium-67 citrate of known biodistribution characteristics was obtained, for comparison to ^125 IUdR. 24 hrs after each rat described in Example 2 received an intramuscular injection of E. coli or after each rat described in Example 1 received an intramuscular injection of turpentine oil (to permit comparison of activity in a bacterial inflammation lesions to activity in a sterile inflammation lesions) in the left rear thigh, each rat received either ^125 IUdR (about 5 μCi/rat) or gallium-67 citrate (about 10 μCi/rat) suspended in 0.1 ml saline, by injection into the tail vein.
At one, three and 24 hrs after ^125 IUdR or gallium-67 citrate administration, the animals from each group were anesthetized, blood collected via cardiac puncture, urine aspirated from the urinary bladder, and the rats humanely sacrificed. The biodistribution of each radiopharmaceutical (measured as a function of the % injected dose/gram body weight) was then determined in various normal tissues and organs, as well as the left and right legs, the pus capsule formed within the leg and in contralateral muscle tissues (i.e., background tissues unaffected by inflammation) of equivalent weight.
To determine the distribution of each radiopharmaceutical in various tissues of each rat (i.e., the "biodistribution" of each radiopharmaceutical), samples of background tissues and organs (blood, lung, liver, spleen, kidney, muscle and intestine), of target tissue (the pus capsule formed in the leg) and of contralateral muscle tissue (background tissue adjacent to target tissue) were obtained from each rat and weighed. Radioactivity in each sample was measured in a well-type gamma counter (from LKB, Wallac Oy, Finland). To correct for radioactive decay and permit calculation of activity in each organ or tissue as a fraction of the injected dosage of radiopharmaceutical, aliquots of the injected doses were counted at the same time that radioactivity in each sample was determined. The results were measured as a function of the percentage of injected dose/gram (% ID/g). For further reference regarding measurements of biodistribution of radiopharmaceuticals, particularly in blood, those of ordinary skill in the art may wish to refer to Baker et al., "The Laboratory Rat" (Acad.Press N.Y., 1980).
Ab = %ID/g over contralateral muscle

[2] = Total photon efficiency of gamma camera; assay type: physicochemical
Description: For use in calculating dosages, the relative photon efficiencies of ^123 IUdR and of gallium-67 were determined.
Total Photon Efficiency of Gamma Camera
With Respect to ^123 IUdR and gallium-67
keV* Frequency X Efficiency

[3] = test system: sterile inflammatory lesions (pus capsule; turpentine oil); assay: Biodistribution (pus capsule to contralateral tissue ratio) in rats with sterile inflammation; settings: for Pus Capsule and Contralateral Tissue (T/B) Ratio, biodistribution: sterile inflammation, i.v., 10 μCi/rat ^67 Ga (n=2), 5 μCi/rat ^125 IUdR (n=6), mean ± SD

With `O=C([O-])CC(O)(CC(=O)[O-])C(=O)[O-].[67Ga+3]` [^67 Ga, gallium-67 citrate] the “concentration within lesion (pus capsule) vs contralateral tissues (in words)” value ([1]; bacterial (E. coli) inflammation) was “to a greater extent than in the contralateral tissues”, the “Pus Capsule and Contralateral Tissue (T/B) Ratio, biodistribution” value ([1]; bacterial infection, 3 h) was 3.21 ± 0.13 and the “Pus Capsule and Contralateral Tissue (T/B) Ratio, biodistribution” value ([1]; bacterial infection, 24 h) was 4.07 ± 1.09. The “time of accumulation at the site of inflammation (in words)” value ([1]; bacterial infection, FIGS. 1 and 5) was “did not accumulate at the site of inflammation until several hours after its administration”, the “Total Photon Efficiency” value ([2]; 91.3 keV) was 0.0296 and the “Total Photon Efficiency” value ([2]; 93.3 keV) was 0.37. For the same molecule, the “Total Photon Efficiency” value ([2]; 184.6 keV) was 0.1326, the “Total Photon Efficiency” value ([2]; 209 keV) was 0.01515 and the “Total Photon Efficiency” value ([2]; 300.2 keV) was 0.0415. The “Total Photon Efficiency” value ([2]; sum over photopeaks (^67 Ga), 159 keV (^123 I)) was 0.59, the “concentration within lesion (pus capsule) vs contralateral tissues (in words)” value ([3]; sterile inflammation (turpentine oil)) was “to a greater extent than in the contralateral tissues” and the “Pus Capsule and Contralateral Tissue (T/B) Ratio, biodistribution” value ([3]; 3 h) was 3.55 ± 0.24. For the same molecule, the “Pus Capsule and Contralateral Tissue (T/B) Ratio, biodistribution” value ([3]; 24 h) was 2.85 ± 0.64.
